Measurements published in patent US20220118051A1, “SELF-ASSEMBLING VEGF NANOPARTICLES” (Northwestern University, priority 2018, published 2022).
“Also recorded” adds a separate entry of the source. C16 = N-terminal C16 alkyl chain

Legend:
Purkinje cells [1] = experiment: Electrophysiological slice recordings, cell-attached, spontaneous firing; assay type: in vivo, mouse; conditions: SCA1 mice treated from 8-10 weeks for two weeks; vs vehicle (aCSF)
Procedure: (§1) To test for behavioral and pathological improvement mice were treated for a two-week period starting at 24 weeks. Nano-VEGF, mouse rVEGF (R&D systems, Minneapolis, Minn.) or artificial CSF (sham controls) were delivered using the intracerebroventricular route (into the right lateral ventricle with stereotaxic coordinates: A/P −0.5 mm, M/L −1.1 mm, D/V −2.5 mm). using osmotic ALZET pumps; model #1002, Durect) (Cvetanovic et al., 2011; herein incorporated by reference in its entirety). Behavioral assays were performed at 26 weeks; while biochemical and histochemical analysis was performed at 27 weeks (after euthanasia). For electrophysiological experiments, we used 8-10 week-old mice for pump placement (with a similar two-week treatment regimen) since it is difficult to generate good electrophysiological traces from older mice.
Mice were anesthetized with isoflurane and killed by decapitation. The brains were removed from the skull and placed in warm (30-33° C.) artificial cerebrospinal fluid (ACSF) containing (in mM): 125 NaCl, 25 NaHCO3, 2.5 KCl, 1.25 NaH2PO4, 0.5 CaCl2), 7 MgCl2, 75 sucrose and 25 glucose, equilibrated with 95% O2 and 5% CO2 (pH 7.4). 300 μm thick para-sagittal cerebellar slices were cut using a vibratome (Leica VT1200) and stored in the same solution at 34° C. for 15 min and then at 20-22° C. until used (<6 hours). […] Cells were recorded in the I-Clamp fast mode. […]

Ataxin-1 = experiment: Western blot of Ataxin-1; assay type: in vivo, mouse; conditions: SCA1 mice, two weeks of treatment
Procedure: as §1
(§2) Proteins were extracted from cerebellar tissues using radioimmunoprecipitation assay (RIPA) buffer (50 mM Tris-HCl, pH 8.0, 150 mM NaCl, 1 mM EDTA, 10 mM NaF, 0.5% Sodium deoxycholate, 1% Triton-X 100, 0.1% SDS, protease inhibitors (Sigma)), and resolved on 7.5% SDS-PAGE gel. Densitometric analysis was evaluated using ImageJ 1.46r software (National Institutes of Health, Bethesda, Md., USA). […]

Ataxin-1 inclusions = experiment: Immunohistochemistry of Ataxin-1 inclusions in hippocampal CA1; assay type: in vivo, mouse; conditions: SCA1 mice, 27 weeks; vs aCSF
Procedure: as §1
To quantify the percentage of cells with ataxin-1 inclusions in the CA1 regions of the hippocampus, brain sections were stained for ataxin-1 (mouse anti-Ataxin-1 11NQ clone N76/3; NeuroMab, 1:1000) and counterstained with DAPI. The number of cells with ataxin-1 inclusions in each defined region of interest was normalized to the number of cells stained with DAPI only. Statistical analysis was performed using unpaired t test. […]

Purkinje cells [2] = experiment: Calbindin staining, Purkinje cell dendritic length; assay type: in vivo, mouse; conditions: SCA1 mice at 27 weeks; vs aCSF
Procedure: as §1
(§3) 27-week-old mice (post treatment and post behavioral analysis) were anesthetized by isoflurane inhalation and were perfused with ice-cold PBS, followed by 4% paraformaldehyde in PBS (Israeli et al., 2016; herein incorporated by reference in its entirety). The brains were post-fixed in 4% paraformaldehyde for 24 hrs, followed by tissue saturation in 30% sucrose for 48-72 hrs. […] After three washes in TBST, signals were detected using according secondary antibodies for 2 hours at RT. […]

[3] = system: SCA1 knock-in mice (SCA1154Q/2Q); experiment: Rotating rod assay (accelerating rotarod); assay type: in vivo, mouse; conditions: SCA1 mice at 26 weeks; for rotarod performance: after two-week ICV delivery from 24 weeks, compared to aCSF-treated SCA1 mice
Procedure: as §1
Rotating Rod Assay: 26-week-old mice (post-treatment) were placed on a rotating rod apparatus (Ugo Basile) that accelerates linearly from 4 to 40 rotations per minute over a 5-minute period. Mice were subjected to four trials per day for four consecutive days, each trial lasting to a maximum of ten minutes, with at least ten minutes of rest between each trial. The average performances for each day were plotted, and statistical differences between the different groups were analyzed using repeated measures two-way ANOVA (followed by Tukey's honest significant difference post-hoc test for multiple comparisons). All statistical analyses here and elsewhere were performed using GraphPad Prism 6 software (GraphPad Software, La Jolla Calif. USA). Data were considered significant for p<0.05. Data are expressed as mean±SEM.

[4] = cited from earlier work
[5] = system: cerebellar microvasculature; experiment: Collagen IV immunostaining of cerebellar microvessels (AngioTool); assay type: in vivo, mouse; conditions: SCA1 mice cerebella
Procedure: as §1, §3

[6] = system: ZO-1, Claudin-5 and Occludin; experiment: Western blot of tight junction proteins in cerebella; assay type: in vivo, mouse; conditions: SCA1 mice cerebella, normalized to actin
Procedure: as §1, §2

VEGFR2 = target: T1, VEGFR2 (Mus musculus, UniProt P35918); experiment: Phospho-VEGFR2 ELISA on cerebellar lysates; assay type: in vivo
T1 construct: Cerebellar lysates were prepared in 2× cell lysis buffer; from tissue; host or cells: mouse cerebellum (SCA1 154Q/2Q knock-in and wild-type mice)
T1 sequence (P35918 20-1345): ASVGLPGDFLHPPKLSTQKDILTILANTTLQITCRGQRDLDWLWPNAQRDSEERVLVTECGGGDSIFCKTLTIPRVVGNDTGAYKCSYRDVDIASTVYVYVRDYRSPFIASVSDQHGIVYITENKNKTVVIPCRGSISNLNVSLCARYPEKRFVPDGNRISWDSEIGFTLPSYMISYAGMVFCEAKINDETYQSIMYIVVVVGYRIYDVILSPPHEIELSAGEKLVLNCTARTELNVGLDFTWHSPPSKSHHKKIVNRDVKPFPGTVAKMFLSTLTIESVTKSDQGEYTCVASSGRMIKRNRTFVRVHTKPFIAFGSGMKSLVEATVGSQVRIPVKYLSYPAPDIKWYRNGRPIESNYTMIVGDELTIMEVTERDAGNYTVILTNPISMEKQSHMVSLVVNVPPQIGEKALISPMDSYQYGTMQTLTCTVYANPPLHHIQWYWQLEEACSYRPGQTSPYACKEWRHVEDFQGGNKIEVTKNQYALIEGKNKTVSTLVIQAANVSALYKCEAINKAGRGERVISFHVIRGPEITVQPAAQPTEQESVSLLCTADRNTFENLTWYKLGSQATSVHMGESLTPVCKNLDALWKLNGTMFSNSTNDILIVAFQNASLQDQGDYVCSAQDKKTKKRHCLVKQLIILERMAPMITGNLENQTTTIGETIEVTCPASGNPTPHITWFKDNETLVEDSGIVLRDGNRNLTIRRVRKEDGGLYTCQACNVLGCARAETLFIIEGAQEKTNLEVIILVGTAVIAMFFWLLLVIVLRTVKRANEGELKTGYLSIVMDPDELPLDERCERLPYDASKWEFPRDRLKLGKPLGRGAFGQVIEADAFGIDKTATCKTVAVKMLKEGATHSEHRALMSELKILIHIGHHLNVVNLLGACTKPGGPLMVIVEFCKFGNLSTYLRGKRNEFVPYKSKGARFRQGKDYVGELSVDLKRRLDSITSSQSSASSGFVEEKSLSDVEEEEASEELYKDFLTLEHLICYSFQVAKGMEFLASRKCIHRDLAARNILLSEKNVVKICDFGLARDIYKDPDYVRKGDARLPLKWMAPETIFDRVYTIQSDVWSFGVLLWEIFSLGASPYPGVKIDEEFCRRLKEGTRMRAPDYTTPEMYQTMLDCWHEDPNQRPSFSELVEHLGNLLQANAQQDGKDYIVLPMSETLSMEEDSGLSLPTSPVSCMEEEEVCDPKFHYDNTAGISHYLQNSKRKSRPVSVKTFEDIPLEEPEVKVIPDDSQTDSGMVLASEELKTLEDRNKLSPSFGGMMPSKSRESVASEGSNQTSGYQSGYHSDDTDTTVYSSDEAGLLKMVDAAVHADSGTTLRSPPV
Procedure: as §1
Phospho-VEGFR2 ELISA was performed using PathScan® Phospho-VEGFR2 (Ty1175) Sandwich ELISA kit (7335, Cell Signaling), according to manufacturer's instruction. Cerebellar lysates were prepared in 2× cell lysis buffer, and undiluted tissue lysates were incubated in 96-well plates coated with phosphor-VEGFR2 primary antibody overnight at 4° C. Wells were washed several times, and detection antibody was added to the well and incubated for 1 hr at 37C and with HRP-conjugated secondary antibody for 30 min at 37° C. Signals were detected with 3,3′,5,5′-Tetramethylbenzidine (TMB) substrate and sulfuric acid were added to stop the reaction. Absorbance was read at 450 nm within 30 min after stopping the reaction.

[7] = system: SCA1 knock-in mice (SCA1154Q/2Q); experiment: Gait analysis on transparent treadmill (Digigait); assay type: in vivo, mouse; conditions: tested up to 24 cm/s, untreated SCA1 mice barely walk at 5 cm/s
Procedure: as §1
Gait Analysis: Mice were placed on a transparent treadmill belt connected to a high-speed digital video camera (Digigait© system; Mouse Specifics, Inc.). The speed of the treadmill was set to the minimum of 5 cm/s up to maximum tolerated speed (maxed out at 24 cm/s). The performance of mice on the treadmill at different speeds was recorded with digital video camera.

[8] = cited from earlier work; remark: listed apart in the source
[9] = SCA1 mice, cerebellar lysates, vs aCSF

Molecule: C16-V2A2K3G-KLTWQELYQLKYKGI (C16-VVAAKKKGKLTWQELYQLKYKGI-NH2) [nano-VEGF, VEGF peptide (mimics VEGF residues 17-25) linked at N terminus to K3G, V2A2 β-domain and C16 alkyl chain; self-assembling peptide amphiphile]
- spontaneous firing of Purkinje cells (Purkinje cells [1]): significantly faster and more regular firing; also recorded: increases firing in Purkinje cells
- Ataxin-1 protein levels (Ataxin-1): does not alter Ataxin-1 levels
- percentage of cells with Ataxin-1 inclusions in the CA1 of hippocampi (Ataxin-1 inclusions): does not differ from that of aCSF-treated mice
- Purkinje cell dendritic length (calbindin staining) (Purkinje cells [2]): significantly increase dendritic length
- rotarod performance [3]: performed markedly better than control SCA1 mice treated with artificial CSF
- rotarod performance ([3]; listed as Nano-VEGF): improved rotarod performance
- rotarod improvement, nano-VEGF compared with rVEGF ([3]; nano-VEGF 20.0 μg vs rVEGF 2.5 μg over two weeks ICV): tended to produce a greater improvement than rVEGF; also recorded: more effective
- bioequivalence relative to rVEGF ([4]; functional studies in mouse hind-limb ischemia model, basis for dose 20.0 μg vs 2.5 μg): approximately eight times that of rVEGF
- time detectable post-injection ([4]; ischemic limb model): up to 4 weeks
- retention of particles in tissue ([4]; mouse hind-limb ischemia model): retained in tissue even four weeks after delivery
- average vessel length, improvement compared with rVEGF [5]: greater improvement
- branching index, improvement compared with rVEGF [5]: greater improvement
- levels of capillary proteins (tight junction markers ZO-1, Claudin-4, and Occludin) [6]: more effective than rVEGF
- VEGFR2 phosphorylation level (VEGFR2; [9]): rescued
- VEGFR2 phosphorylation level (VEGFR2; wild-type (WT) mice): did not upregulate phosphorylation of VEGFR2
- treadmill speed at which treated mice could walk and even run [7]: 17 cm/s

B1: rVEGF: mouse recombinant VEGF (R&D systems) (protein)
chain: APTTEGEQKSHEVIKFMDVYQRSYCRPIETLVDIFQEYPDEIEYIFKPSCVPLMRCAGCCNDEALECVPTSESNITMQIMRIKPHQSQHIGEMSFLQHSRCECRPKKDRTKPENHCEPCSERRKHLFVQDPQTCKCSCKNTDSRCKARQLELNERTCRCDKPRR
- Purkinje cell dendritic length (calbindin staining) (Purkinje cells [2]): significantly increase dendritic length
- rotarod performance [3]: performed markedly better than control SCA1 mice treated with artificial CSF; also recorded: improved rotarod performance
- half-life in vivo [8]: about 30 minutes
- VEGFR2 phosphorylation level (VEGFR2; [9]): rescued
- VEGFR2 phosphorylation level (VEGFR2; wild-type (WT) mice): did not upregulate phosphorylation of VEGFR2
- treadmill speed at which treated mice could walk and even run [7]: 17 cm/s
